Reference: US20240218022A1, “ANTI-VISTA MACROCYCLIC PEPTIDES AND COMPOSITIONS” (BRISTOL-MYERS SQUIBB COMPANY, priority 2022, published 2024)
Positions of bridges follow the written chain, without caps; N, C: chain ends. Non-standard residues stand in square brackets, D forms with d. Residues, ends and D or L forms follow the SMILES beside them. 2Nal = N[C@@H](Cc1ccc2ccccc2c1)C(=O)O; Ahp(2) = CCCCC[C@H](N)C(=O)O; NMeNle = CCCC[C@H](NC)C(=O)O; NHexGly = CCCCCCNCC(=O)O; Nle = CCCC[C@H](N)C(=O)O; Orn = NCCC[C@H](N)C(=O)O

Target: T1, mouse VISTA (mVISTA) (Mus musculus, UniProt Q9D659)
T1 construct: expressed in transfected cells; host or cells: Human embryonic kidney 293T cells
T1 sequence (Q9D659 33-308): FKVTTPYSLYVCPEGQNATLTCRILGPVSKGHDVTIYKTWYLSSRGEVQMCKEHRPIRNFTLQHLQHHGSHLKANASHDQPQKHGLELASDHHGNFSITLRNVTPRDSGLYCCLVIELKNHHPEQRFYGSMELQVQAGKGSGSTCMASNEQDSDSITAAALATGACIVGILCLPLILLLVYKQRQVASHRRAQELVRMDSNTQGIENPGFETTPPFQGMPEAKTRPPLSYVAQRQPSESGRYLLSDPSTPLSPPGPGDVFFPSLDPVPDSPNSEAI
Assay: Cell-Based Binding High-Content Assay For mVISTA (HC CBA mVISTA)
Details: cell-based binding high-content assay, mVISTA; the 15th table; read-out: HC CBA mVISTA IC50
Summary of the method: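 293T cells expressing mouse VISTA, with compounds added either after seeding ("no wash") or before seeding and then washed out after 1 h. Biotinylated peptide 2 nM for 30 min at room temperature, then detection with Alexa 647–streptavidin. After fixation with Hoechst stain, plates were high-content imaged; IC50 from four-parameter logistic fit.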

Compound | IC50
CCCCCCN1CC(=O)N[C@@H](Cc2ccc(O)cc2)C(=O)N[C@@H](CCCC)C(=O)N[C@@H](CC(N)=O)C(=O)N[C@@H](CCCNC(=N)N)C(=O)N(C)[C@@H](CCCC)C(=O)N[C@@H](CCCCC)C(=O)N2CCC[C@H]2C(=O)N[C@@H](C(C)C)C(=O)N[C@@H](CCCNC(=N)N)C(=O)N[C@H](C(=O)NCC(=O)O)CSCC(=O)N[C@@H](Cc2ccc3ccccc3c2)C(=O)N[C@@H](Cc2c[nH]c3ccccc23)C(=O)N[C@@H](CC(=O)O)C1=O [compound 1246] ({CH2CO}-[2Nal]WD[NHexGly]Y[Nle]NR[NMeNle][Ahp(2)]PVRCG-OH; thioether N-14) | 25.1 nM
CCCCCCN1CC(=O)N[C@@H](Cc2ccc(O)cc2)C(=O)N[C@@H](CCCC)C(=O)N[C@@H](CC(N)=O)C(=O)N[C@@H](CCCNC(=N)N)C(=O)N(C)[C@@H](CCCC)C(=O)N[C@@H](CCCCC)C(=O)N2CCC[C@H]2C(=O)N[C@@H](C(C)C)C(=O)N[C@@H](CO)C(=O)N[C@H](C(=O)NCC(=O)O)CSCC(=O)N[C@@H](Cc2ccc3ccccc3c2)C(=O)N[C@@H](Cc2c[nH]c3ccccc23)C(=O)N[C@@H](CC(=O)O)C1=O [compound 1247] ({CH2CO}-[2Nal]WD[NHexGly]Y[Nle]NR[NMeNle][Ahp(2)]PVSCG-OH; thioether N-14) | 35.2 nM
CCCCCCN1CC(=O)N[C@@H](Cc2ccc(O)cc2)C(=O)N[C@@H](CCCC)C(=O)N[C@@H](CC(N)=O)C(=O)N[C@@H](CCCNC(=N)N)C(=O)N(C)[C@@H](CCCC)C(=O)N[C@@H](CCCCC)C(=O)N2CCC[C@H]2C(=O)N[C@@H](C(C)C)C(=O)N[C@@H](C(C)C)C(=O)N[C@H](C(=O)NCC(=O)O)CSCC(=O)N[C@@H](Cc2ccc3ccccc3c2)C(=O)N[C@@H](Cc2c[nH]c3ccccc23)C(=O)N[C@@H](CC(=O)O)C1=O [compound 1248] ({CH2CO}-[2Nal]WD[NHexGly]Y[Nle]NR[NMeNle][Ahp(2)]PVVCG-OH; thioether N-14) | 38.4 nM

The next molecules have a lower IC50 than those just listed; values first:

IC50 | Compound
20.1 nM | CCCCCCN1CC(=O)N[C@@H](Cc2ccc(O)cc2)C(=O)N[C@@H](CCCC)C(=O)N[C@@H](CC(=O)O)C(=O)N[C@@H](CCCNC(=N)N)C(=O)N(C)[C@@H](CCCC)C(=O)N[C@@H](CCCCC)C(=O)N2CCC[C@H]2C(=O)N[C@@H](C(C)C)C(=O)N[C@@H](CC(=O)O)C(=O)N[C@H](C(=O)N[C@@H](CC(=O)O)C(N)=O)CSCC(=O)N[C@@H](Cc2ccc3ccccc3c2)C(=O)N[C@@H](Cc2c[nH]c3ccccc23)C(=O)N[C@@H](CC(=O)O)C1=O [compound 1243] ({CH2CO}-[2Nal]WD[NHexGly]Y[Nle]DR[NMeNle][Ahp(2)]PVDCD-NH2; thioether N-14)
13.5 nM | CCCCCCN1CC(=O)N[C@@H](Cc2ccc(O)cc2)C(=O)N[C@@H](CCCC)C(=O)N[C@@H](CC(=O)O)C(=O)N[C@@H](CCCN)C(=O)N(C)[C@@H](CCCC)C(=O)N[C@@H](CCCCC)C(=O)N2CCC[C@H]2C(=O)N[C@@H](C(C)C)C(=O)N[C@@H](CC(=O)O)C(=O)N[C@H](C(=O)N[C@@H](CC(=O)O)C(N)=O)CSCC(=O)N[C@@H](Cc2ccc3ccccc3c2)C(=O)N[C@@H](Cc2c[nH]c3ccccc23)C(=O)N[C@@H](CC(=O)O)C1=O [compound 1244] ({CH2CO}-[2Nal]WD[NHexGly]Y[Nle]D[Orn][NMeNle][Ahp(2)]PVDCD-NH2; thioether N-14)
6.2 nM | CCCCCCN1CC(=O)N[C@@H](Cc2ccc(O)cc2)C(=O)N[C@@H](CCCC)C(=O)N[C@@H](CC(N)=O)C(=O)N[C@@H](CCCNC(=N)N)C(=O)N(C)[C@@H](CCCC)C(=O)N[C@@H](CCCCC)C(=O)N2CCC[C@H]2C(=O)N[C@@H](C(C)C)C(=O)N[C@@H](CC(=O)O)C(=O)N[C@H](C(=O)NCC(=O)O)CSCC(=O)N[C@@H](Cc2ccc3ccccc3c2)C(=O)N[C@@H](Cc2c[nH]c3ccccc23)C(=O)N[C@@H](CC(=O)O)C1=O [compound 1245] ({CH2CO}-[2Nal]WD[NHexGly]Y[Nle]NR[NMeNle][Ahp(2)]PVDCG-OH; thioether N-14)
